Measurements reported in ChEMBL document CHEMBL4800729 (2021).

How the values were obtained:
[1] = molecular target: 5-hydroxytryptamine receptor 2A (Homo sapiens) (UniProt P28223); conditions: Compound concentration 10.0 uM
[2] = molecular target: Ribosomal protein S6 kinase alpha-2 (Homo sapiens) (UniProt Q15349); test: Rsk3(h) Millipore kinase panel; conditions: Compound concentration 1.0 uM
[3] = molecular target: Carbonic anhydrase 2 (Homo sapiens) (UniProt P00918); test: Inhibition of Carbonic Anhydrase II at compound concentration of 10.0 uM in the Eurofins-Panlabs enzyme assay (Eurofins_assay_112020); parameters: substrate with concentration; conditions: Compound concentration 10.0 uM
[4] = molecular target: Mitogen-activated protein kinase kinase kinase 20 (Homo sapiens) (UniProt Q9NYL2); test: ZAK(h) Millipore kinase panel; conditions: Compound concentration 1.0 uM
[5] = molecular target: Serine/threonine-protein kinase PAK 1 (Homo sapiens) (UniProt Q13153); test: PAK1(h) Millipore kinase panel; conditions: Compound concentration 1.0 uM
[6] = molecular target: Ephrin type-A receptor 3 (Homo sapiens) (UniProt P29320); test: EphA3(h) Millipore kinase panel; conditions: Compound concentration 1.0 uM
[7] = molecular target: Serine/threonine-protein kinase 25 (Homo sapiens) (UniProt O00506); test: STK25(h) Millipore kinase panel; conditions: Compound concentration 1.0 uM
[8] = molecular target: PI3-kinase p110-alpha/p85-alpha (Homo sapiens) (UniProt P27986+P42336); test: PI3 Kinase (p110a/p85a)(h) Millipore kinase panel; type: protein-complex assay; conditions: Compound concentration 1.0 uM
[9] = molecular target: G protein-coupled receptor kinase 5 (Homo sapiens) (UniProt P34947); test: GRK5(h) Millipore kinase panel; conditions: Compound concentration 1.0 uM
[10] = molecular target: Beta-3 adrenergic receptor (Homo sapiens) (UniProt P13945); conditions: Compound concentration 10.0 uM
[11] = molecular target: Vasopressin V1a receptor (Homo sapiens) (UniProt P37288); conditions: Compound concentration 10.0 uM
[12] = molecular target: GABA-A receptor; anion channel (Rattus norvegicus) (UniProt O09028+P15431+P18506+P18508+P19969+P20236+P23574+P23576+P28471+P28473+P30191+P62813+P63079+P63138+Q91ZM7+Q9ES14); conditions: Compound concentration 10.0 uM
[13] = molecular target: Muscarinic acetylcholine receptor M3 (Homo sapiens) (UniProt P20309); conditions: Compound concentration 10.0 uM
[14] = molecular target: Serine/threonine-protein kinase 10 (Homo sapiens) (UniProt O94804); test: LOK(h) Millipore kinase panel; conditions: Compound concentration 1.0 uM
[15] = molecular target: Calcium/calmodulin-dependent protein kinase type II subunit beta (Homo sapiens) (UniProt Q13554); test: CaMKIIbeta(h) Millipore kinase panel; conditions: Compound concentration 1.0 uM
[16] = molecular target: Endothelin receptor type B (Homo sapiens) (UniProt P24530); conditions: Compound concentration 10.0 uM
[17] = molecular target: Serine/threonine-protein kinase Nek3 (Homo sapiens) (UniProt P51956); test: NEK3(h) Millipore kinase panel; conditions: Compound concentration 1.0 uM
[18] = molecular target: Alpha-1A adrenergic receptor (Homo sapiens) (UniProt P35348); test: Inhibition of Adrenergic alpha1A at compound concentration of 10.0 uM in the Eurofins-Panlabs radioligand binding assay (Eurofins_assay_203110); parameters: ligand concentration 0.25 nM; conditions: Rattus norvegicus; Compound concentration 10.0 uM
[19] = molecular target: Activin receptor type-2A (Homo sapiens) (UniProt P27037); test: ACTR2(h) Millipore kinase panel; conditions: Compound concentration 1.0 uM
[20] = molecular target: Thromboxane-A synthase (Homo sapiens) (UniProt P24557); test: Inhibition of Thromboxane Synthase at compound concentration of 10.0 uM in the Eurofins-Panlabs enzyme assay (Eurofins_assay_194020); parameters: substrate with concentration; conditions: Compound concentration 10.0 uM
[21] = molecular target: Eukaryotic translation initiation factor 2-alpha kinase 1 (Homo sapiens) (UniProt Q9BQI3); test: HRI(h) Millipore kinase panel; conditions: Compound concentration 1.0 uM
[22] = molecular target: MAP kinase-activated protein kinase 3 (Homo sapiens) (UniProt Q16644); test: MAPKAP-K3(h) Millipore kinase panel; conditions: Compound concentration 1.0 uM
[23] = molecular target: Serine/threonine-protein kinase D3 (Homo sapiens) (UniProt O94806); test: PKD3(h) Millipore kinase panel; conditions: Compound concentration 1.0 uM
[24] = molecular target: D(3) dopamine receptor (Homo sapiens) (UniProt P35462); conditions: Compound concentration 10.0 uM
[25] = molecular target: cAMP-dependent protein kinase catalytic subunit alpha (Homo sapiens) (UniProt P17612); test: PKA(h) Millipore kinase panel; conditions: Compound concentration 1.0 uM
[26] = molecular target: Serine/threonine-protein kinase TAO2 (Homo sapiens) (UniProt Q9UL54); test: TAO2(h) Millipore kinase panel; conditions: Compound concentration 1.0 uM
[27] = molecular target: BMP-2-inducible protein kinase (Homo sapiens) (UniProt Q9NSY1); test: BIKe(h) Millipore kinase panel; conditions: Compound concentration 1.0 uM
[28] = molecular target: 5-hydroxytryptamine receptor 2B (Homo sapiens, UniProt P41595); conditions: Compound concentration 10.0 uM
[29] = molecular target: Serine/threonine-protein kinase MARK2 (Homo sapiens) (UniProt Q7KZI7); test: PAR-1Balpha(h) Millipore kinase panel; conditions: Compound concentration 1.0 uM
[30] = molecular target: Serine/threonine-protein kinase OSR1 (Homo sapiens) (UniProt O95747); test: OSR1(h) Millipore kinase panel; conditions: Compound concentration 1.0 uM
[31] = molecular target: Protein kinase C iota type (Homo sapiens) (UniProt P41743); test: PKCiota(h) Millipore kinase panel; conditions: Compound concentration 1.0 uM
[32] = molecular target: Serine/threonine-protein kinase 38-like (Homo sapiens) (UniProt Q9Y2H1); test: NDR2(h) Millipore kinase panel; conditions: Compound concentration 1.0 uM
[33] = molecular target: Tyrosine-protein kinase Srms (Homo sapiens) (UniProt Q9H3Y6); test: SRMS(h) Millipore kinase panel; conditions: Compound concentration 1.0 uM
[34] = molecular target: Dual specificity protein kinase CLK2 (Homo sapiens) (UniProt P49760); test: CLK2(h) Millipore kinase panel; conditions: Compound concentration 1.0 uM
[35] = molecular target: Calcium/calmodulin-dependent protein kinase kinase 2 (Homo sapiens) (UniProt Q96RR4); test: CaMKK2(h) Millipore kinase panel; conditions: Compound concentration 1.0 uM
[36] = molecular target: Tyrosine-protein kinase receptor UFO (Homo sapiens) (UniProt P30530); test: Axl(h) Millipore kinase panel; conditions: Compound concentration 1.0 uM
[37] = molecular target: Cyclin-dependent kinase 13/Cyclin-K (Homo sapiens) (UniProt Q14004+O75909); test: CDK13/cyclinK(h) Millipore kinase panel; type: protein-complex assay; conditions: Compound concentration 1.0 uM
[38] = molecular target: 5-hydroxytryptamine receptor 5A (Homo sapiens) (UniProt P47898); conditions: Compound concentration 10.0 uM
[39] = molecular target: RAC-alpha serine/threonine-protein kinase (Homo sapiens) (UniProt P31749); test: PKBalpha(h) Millipore kinase panel; conditions: Compound concentration 1.0 uM
[40] = molecular target: D(2) dopamine receptor (Homo sapiens) (UniProt P14416); conditions: Compound concentration 10.0 uM
[41] = molecular target: Mitogen-activated protein kinase kinase kinase 7 (Homo sapiens) (UniProt O43318); test: TAK1(h) Millipore kinase panel; conditions: Compound concentration 1.0 uM
[42] = molecular target: Mitogen-activated protein kinase kinase kinase kinase 3 (Homo sapiens) (UniProt Q8IVH8); test: MAP4K3(h) Millipore kinase panel; conditions: Compound concentration 1.0 uM
[43] = molecular target: Ephrin type-A receptor 7 (Homo sapiens) (UniProt Q15375); test: EphA7(h) Millipore kinase panel; conditions: Compound concentration 1.0 uM
[44] = molecular target: G protein-coupled receptor kinase 6 (Homo sapiens) (UniProt P43250); test: GRK6(h) Millipore kinase panel; conditions: Compound concentration 1.0 uM
[45] = molecular target: Myotonin-protein kinase (Homo sapiens) (UniProt Q09013); test: DMPK(h) Millipore kinase panel; conditions: Compound concentration 1.0 uM

Compound `CC[C@@H](Nc1c(C#N)c(-c2ccc(-c3cccc(C)c3F)cc2)nc2cnccc12)C(=O)O` [BAY-091] has an inhibition [1] of 19%, an inhibition [2] of 10.9% and an inhibition [3] of -6%. It also gave an inhibition [4] of -4.94%, an inhibition [5] of 23.8% and an inhibition [6] of 4.71%. It also gave an inhibition [7] of 3.01%, an inhibition [8] of 11% and an inhibition [9] of -3.49%. It also gave an inhibition [10] of -2.13%, an inhibition [11] of -3% and an inhibition [12] of 3%. The inhibition [13] was 0%, the inhibition [14] was 8.13% and the inhibition [15] was 8.65%. For the same compound, the inhibition [16] was 1%, the inhibition [17] was 8.41% and the inhibition [18] was -4%. For the same compound, the inhibition [19] was 1.17%, the inhibition [20] was 98% and the inhibition [21] was -6.26%. The inhibition [22] was 5.32%, the inhibition [23] was 12.6% and the inhibition [24] was 10.5%. For the same compound, the inhibition [25] was 11%, the inhibition [26] was 10.3% and the inhibition [27] was 5.17%. It also gave an inhibition [28] of 61%, an inhibition [29] of 6.75% and an inhibition [30] of -3.86%. The inhibition [31] was 5.85%, the inhibition [32] was 5.88% and the inhibition [33] was 26.3%. It also gave an inhibition [34] of 0.07%, an inhibition [35] of 11.3% and an inhibition [36] of 12.6%. It also gave an inhibition [37] of 1.16%, an inhibition [38] of 14.8% and an inhibition [39] of -1.04%. For the same compound, the inhibition [40] was 10%, the inhibition [41] was 7.89% and the inhibition [42] was 8.29%. It also gave an inhibition [43] of 2.1%, an inhibition [44] of 0.16% and an inhibition [45] of 15.1%.
